Legend:
Format in all cases: in vivo
Rape [1] = test: post-emergence herbicide test; settings: post-emergence, 0.25 lb/A; read-out: % plant inhibition
Outline: (§1)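 Seeds sown on compacted topsoil, covered, leveled; greenhouse, overhead or subirrigation. Plants 2–3 wk old → atomizer spray, 170.3 kPa, 1870 L/Ha, ~0.4% v/v emulsifier. Readout: % inhibition.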

Soybean [2] = test: post-emergence herbicide test; settings: Glycine max, post-emergence, 0.25 lb/A; read-out: % plant inhibition
Outline: as §1

Velvetleaf [3] = test: post-emergence herbicide test; settings: Abutilon theophrasti, post-emergence, 0.25 lb/A; read-out: % plant inhibition
Outline: as §1

Corn [4] = test: post-emergence herbicide test; settings: Zea mays, post-emergence, 0.25 lb/A; read-out: % plant inhibition
Outline: as §1

Wild Oats [5] = test: post-emergence herbicide test; settings: Avena fatua, post-emergence, 0.25 lb/A; read-out: % plant inhibition
Outline: as §1

Giant Foxtail [6] = test: post-emergence herbicide test; settings: Setaria faberi, post-emergence, 0.25 lb/A; read-out: % plant inhibition
Outline: as §1

Wheat [7] = test: post-emergence herbicide test; settings: Triticum aestivum, post-emergence, 0.25 lb/A; read-out: % plant inhibition
Outline: as §1

Blackgrass [8] = test: post-emergence herbicide test; settings: Alopecurus myosuroides, post-emergence, 0.25 lb/A; read-out: % plant inhibition
Outline: as §1

Barnyardgrass [9] = test: post-emergence herbicide test; settings: Echinochloa crus-galli, post-emergence, 0.25 lb/A; read-out: % plant inhibition
Outline: as §1

Downy Brome [10] = test: post-emergence herbicide test; settings: Bromus tectorum, post-emergence, 0.25 lb/A; read-out: % plant inhibition
Outline: as §1

Cocklebur [11] = test: post-emergence herbicide test; settings: Xanthium strumarium, post-emergence, 0.25 lb/A; read-out: % plant inhibition
Outline: as §1

Birdseye Speedwell [12] = test: post-emergence herbicide test; settings: post-emergence, 0.25 lb/A; read-out: % plant inhibition
Outline: as §1

Common Chickweed [13] = test: post-emergence herbicide test; settings: post-emergence, 0.25 lb/A; read-out: % plant inhibition
Outline: as §1

Seedling Johnsongrass [14] = test: post-emergence herbicide test; settings: Sorghum halepense, post-emergence, 0.25 lb/A; read-out: % plant inhibition
Outline: as §1

Green Foxtail [15] = test: post-emergence herbicide test; settings: Setaria viridis, post-emergence, 0.25 lb/A; read-out: % plant inhibition
Outline: as §1

Morning Glory [16] = test: post-emergence herbicide test; settings: Ipomoea, post-emergence, 0.25 lb/A; read-out: % plant inhibition
Outline: as §1

Bedstraw Catchweed [17] = test: post-emergence herbicide test; settings: Galium aparine, post-emergence, 0.25 lb/A; read-out: % plant inhibition
Outline: as §1

Rape [18] = test: pre-emergence herbicide test; settings: pre-emergence, 0.25 lb/A; read-out: % plant inhibition
Outline: (§2)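 Soil-applied pre-emergence screen: compound added to cover topsoil over sown seeds, pans held on greenhouse bench with subirrigation, % inhibition scored ~2 weeks later.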

Soybean [19] = test: pre-emergence herbicide test; settings: Glycine max, pre-emergence, 0.25 lb/A; read-out: % plant inhibition
Outline: as §2

Velvetleaf [20] = test: pre-emergence herbicide test; settings: Abutilon theophrasti, pre-emergence, 0.25 lb/A; read-out: % plant inhibition
Outline: as §2

Corn [21] = test: pre-emergence herbicide test; settings: Zea mays, pre-emergence, 0.25 lb/A; read-out: % plant inhibition
Outline: as §2

Wild Oats [22] = test: pre-emergence herbicide test; settings: Avena fatua, pre-emergence, 0.25 lb/A; read-out: % plant inhibition
Outline: as §2

Giant Foxtail [23] = test: pre-emergence herbicide test; settings: Setaria faberi, pre-emergence, 0.25 lb/A; read-out: % plant inhibition
Outline: as §2

Wheat [24] = test: pre-emergence herbicide test; settings: Triticum aestivum, pre-emergence, 0.25 lb/A; read-out: % plant inhibition
Outline: as §2

Blackgrass [25] = test: pre-emergence herbicide test; settings: Alopecurus myosuroides, pre-emergence, 0.25 lb/A; read-out: % plant inhibition
Outline: as §2

Barnyardgrass [26] = test: pre-emergence herbicide test; settings: Echinochloa crus-galli, pre-emergence, 0.25 lb/A; read-out: % plant inhibition
Outline: as §2

Downy Brome [27] = test: pre-emergence herbicide test; settings: Bromus tectorum, pre-emergence, 0.25 lb/A; read-out: % plant inhibition
Outline: as §2

Cocklebur [28] = test: pre-emergence herbicide test; settings: Xanthium strumarium, pre-emergence, 0.25 lb/A; read-out: % plant inhibition
Outline: as §2

Birdseye Speedwell [29] = test: pre-emergence herbicide test; settings: pre-emergence, 0.25 lb/A; read-out: % plant inhibition
Outline: as §2

Common Chickweed [30] = test: pre-emergence herbicide test; settings: pre-emergence, 0.25 lb/A; read-out: % plant inhibition
Outline: as §2

Seedling Johnsongrass [31] = test: pre-emergence herbicide test; settings: Sorghum halepense, pre-emergence, 0.25 lb/A; read-out: % plant inhibition
Outline: as §2

Green Foxtail [32] = test: pre-emergence herbicide test; settings: Setaria viridis, pre-emergence; 0.25 lb/A; read-out: % plant inhibition
Outline: as §2

Morning Glory [33] = test: pre-emergence herbicide test; settings: Ipomoea, pre-emergence, 0.25 lb/A; read-out: % plant inhibition
Outline: as §2

Bedstraw Catchweed [34] = test: pre-emergence herbicide test; settings: Galium aparine, pre-emergence, 0.25 lb/A; read-out: % plant inhibition
Outline: as §2

| SMILES | inhibition at 280.212 g/ha (Rape [1]) | inhibition at 280.212 g/ha (Soybean [2]) | inhibition at 280.212 g/ha (Velvetleaf [3]) | inhibition at 280.212 g/ha (Corn [4]) | inhibition at 280.212 g/ha (Wild Oats [5]) | inhibition at 280.212 g/ha (Giant Foxtail [6]) | inhibition at 280.212 g/ha (Wheat [7]) | inhibition at 280.212 g/ha (Blackgrass [8]) | inhibition at 280.212 g/ha (Barnyardgrass [9]) | inhibition at 280.212 g/ha (Downy Brome [10]) | inhibition at 280.212 g/ha (Cocklebur [11]) | inhibition at 280.212 g/ha (Birdseye Speedwell [12]) | inhibition at 280.212 g/ha (Common Chickweed [13]) | inhibition at 280.212 g/ha (Seedling Johnsongrass [14]) | inhibition at 280.212 g/ha (Green Foxtail [15]) | inhibition at 280.212 g/ha (Morning Glory [16]) | inhibition at 280.212 g/ha (Bedstraw Catchweed [17]) | inhibition at 280.212 g/ha (Rape [18]) | inhibition at 280.212 g/ha (Soybean [19]) | inhibition at 280.212 g/ha (Velvetleaf [20]) | further results |
| --- | --- | --- | --- | --- | --- | --- | --- | --- | --- | --- | --- | --- | --- | --- | --- | --- | --- | --- | --- | --- | --- |
| CCCCCOC(=O)c1cc(-c2nn(C)c(C(F)(F)F)c2C)c(F)cc1Cl [Compound 48] | 60% | 70% | 100% | 7% | 75% | 99% | 16% | 70% | 60% | 65% | 90% | 100% | 65% | 85% | 98% | 75% | 80% | 5% | 0% | 95% | inhibition at 280.212 g/ha (Corn [21]): 35%; inhibition at 280.212 g/ha (Wild Oats [22]): 45%; inhibition at 280.212 g/ha (Giant Foxtail [23]): 99%; inhibition at 280.212 g/ha (Wheat [24]): 0%; inhibition at 280.212 g/ha (Blackgrass [25]): 60%; inhibition at 280.212 g/ha (Barnyardgrass [26]): 100%; inhibition at 280.212 g/ha (Downy Brome [27]): 90%; inhibition at 280.212 g/ha (Cocklebur [28]): 45%; inhibition at 280.212 g/ha (Birdseye Speedwell [29]): 100%; inhibition at 280.212 g/ha (Common Chickweed [30]): 95%; inhibition at 280.212 g/ha (Seedling Johnsongrass [31]): 98%; inhibition at 280.212 g/ha (Green Foxtail [32]): 100%; inhibition at 280.212 g/ha (Morning Glory [33]): 99%; inhibition at 280.212 g/ha (Bedstraw Catchweed [34]): 45% |
| CCOC(=O)C=C(COC(=O)c1cc(-c2nn(C)c(C(F)(F)F)c2C)c(F)cc1Cl)OC [Compound 44] | 45% | 10% | 99% | 15% | 25% | 65% | 15% | 25% | 90% | 35% | 99% | 100% | 95% | 60% | 90% | 80% | 100% | 20% | 0% | 60% | inhibition at 280.212 g/ha (Corn [21]): 0%; inhibition at 280.212 g/ha (Wild Oats [22]): 5%; inhibition at 280.212 g/ha (Giant Foxtail [23]): 50%; inhibition at 280.212 g/ha (Wheat [24]): 0%; inhibition at 280.212 g/ha (Blackgrass [25]): 20%; inhibition at 280.212 g/ha (Barnyardgrass [26]): 10%; inhibition at 280.212 g/ha (Downy Brome [27]): 5%; inhibition at 280.212 g/ha (Cocklebur [28]): 0%; inhibition at 280.212 g/ha (Birdseye Speedwell [29]): 85%; inhibition at 280.212 g/ha (Common Chickweed [30]): 85%; inhibition at 280.212 g/ha (Seedling Johnsongrass [31]): 40%; inhibition at 280.212 g/ha (Green Foxtail [32]): 100%; inhibition at 280.212 g/ha (Morning Glory [33]): 50%; inhibition at 280.212 g/ha (Bedstraw Catchweed [34]): 40% |

Reference: US5672715A, “Herbicidal substituted 3-aryl-pyrazoles” (Monsanto Company, priority 1995, dated 1997)
